Source: patent US20210301038A1, “POLYSIALIC ACID AND DERIVATIVES THEREOF, PHARMACEUTICAL COMPOSITION AND METHOD OF PRODUCING POLYSIALIC ACID” (Medizinische Hochschule Hannover (MHH), priority 2018, published 2021)

Legend:
[1] = tested on: C57BL/6J mice with intra-mPFC endoNF injection; experiment: Novel object recognition test before and after intra-mPFC endoNF injection; type: in vivo, mouse; settings: 30 min before encoding; sarcosine 600 mg/kg i.p. (d2); DP12 (d5) and DP1 (d6) 1 mg/kg intranasally
Protocol: Guide cannulas were fabricated using stainless steel tubing with outer/inner diameter Ø 0.711/0.483 mm (Science Products, Germany). Dummy cannulas were made from entomological pins, size 2, Ø 0.41 mm (FST, Germany). Chronic implantation of cannulas into the mPFC in mice was performed as described previously for intrahippocampal injections (Kochlamazashvili et al., 2012; Senkov et al., 2015; Senkov et al., 2006).
Acute injection of endoNF in vivo was done under a short isoflurane anesthesia. For intra-mPFC injection, we used a digitally controlled infusion system (UltraMicroPump, UMP3, and Micro4 Controller, WPI, USA) fed with a 10 μl-Hamilton syringe and NanoFil 135 μm (35 GA) beveled needle. The thin (135 μm) part of the needle went into the mouse brain during injection, whereas its thick part (430 μm) fit perfectly in the guide cannula (inside 483 μm). Injections were performed as follows: 1) a mouse was anesthetized with 1-3% isoflurane as during implantation; 2) it was put into the stereotaxic frame; 3) the dummy cannula was gently removed from the left guide cannula; 4) a NanoFil injecting needle was carefully placed inside of the guide cannula and advanced further down until reaching the marker (made with a permanent pen at the needle shank (430 μm) to visualize the point when the needle should reach the surface of the brain coming out of the guide cannula (equal to the length of guide cannula); 5) once the marker was reached, a slow (10 μm increment) step dial was used to deepen the needle into the brain; 6) endoNF (2 μg/μl) or vehicle was injected with the following settings: 250 nl per site as deep as 1.5 and 2.25 mm from the brain surface (total injection volume per hemisphere 500 nl, injection rate of 3 nl/s); 7) after injection was complete (˜5 min), the needle was left in the injection site for another 5 min and then gently removed; 8) the dummy cannula was then put back to its place; 9) the same procedure was performed for the right hemisphere. The whole injection process took approximately 20-25 min under isoflurane anesthesia, and the mice recovered rather quickly, starting to move in approximately 2-3 min after being returned to their home cages. Complete recovery of a mouse after such short anesthesia usually occurs within 3-5 min. After injection, mice were returned to their animal facility. Behavior experiments started on the day after injection at approximately the same time, so that we could perform cognitive tests 24 hours after injection.
A white open field arena (50×50×30 cm) was used in the novel object recognition task. All behavior was video recorded and analyzed automatically by software (ANY-maze, version 4.99, Stoelting Co., Wood Dale, Ill.). […]

[2] = tested on: AAV-GFP-Tau[R406W]-injected mice; experiment: Recency test in AAV-GFP-Tau[R406W]-injected mice; type: in vivo, mouse; settings: intranasal delivery
Source text: AAVs were produced using the AAV helper free packaging systems AAV-DJ (Cell Biolabs, Inc.). In short, HEK293 cells were transfected with the pAAV-DJ and pHelper constructs along with the viral expression constructs (pAAV vectors) encoding either eGFP or eGFP-Tau[R406W] under the control of a synapsin promotor. After three days, viruses were harvested using freeze-thaw cycles. After lysis, non-viral DNA is digested with Benzonase, and lysate is filtered through a 0.22 μm filter, washed with PBS and concentrated using Amicon Ultra-15 Centrifugal Filter Units with a cut off of 50 kDa. Titers were determined to be >10^10 GC/ml using quantitative Real-Time PCR with primers for the WPRE element in the viral genome.
For stereotaxic delivery of AAVs, mice were anesthetized in a closed chamber using isoflurane (1 ml for 30 s). […]
Animals were randomly assigned to treatment groups using a randomized block design to counterbalance differences in age. […] Novelty detection was evaluated by calculating the discrimination ratio as follows: [novel object time−familiar object time]/[novel object time+familiar object time]×100%. In the recency test, the discrimination ratio was calculated as follows: [least recent object time−most recent object time]/[least object time+most recent object time]×100%. […]

(α(2→8)Neu5Ac)12 [DP12]
novel object recognition after intra-mPFC endoNF injection [1]: significantly improved novel object recognition | rescue of impaired recent object recognition [2]: fully rescued
